Consider nine compounds from US6969702B2, “Compounds and methods for increasing neurogenesis” (priority 2002, dated 2005).

SMILES strings stand for the structures. Marks after values point to notes of the source that are not given here. Square brackets hold non-standard residues; d marks the D form. Peptide text beside a SMILES is read from it. d(pGlu) = O=C1CC[C@H](C(=O)O)N1

Data set [1] has as its system mouse adult neural stem cells. The data set can be described thus: ATP-assay: proliferation (ATP levels) of neurosphere-derived cells. The following applies: for Fold Induction ATP: vs vehicle.
Another data set has as its system Adult neural stem cells. Description: Flow cytometry for early neuronal marker Doublecortin. The settings on record: for % Doublecortin-positive cells / Fold Induction (Doublecortin-positive cells): Table 6; for % Doublecortin-positive cells: 4 days; for Fold Induction (Doublecortin-positive cells): vs EGF/FGF.
For data set [2], the system named is cAMP activation in mouse adult neural stem cells. The data set can be described thus: cAMP detection (HitHunter EFC Cyclic AMP Chemiluminescence Assay). The settings on record: for Fold Induction cAMP: vs vehicle.
Where [3] appears, read: Table 2, 10 nM (cAMP concentration).
Setting [4] is: Table 2, 100 nM (cAMP concentration).
Setting [5] is: Table 2, 1 nM (cAMP concentration).

With `CSCC[C@@H]1NC(=O)[C@H](C)NC(=O)[C@H]([C@@H](C)O)NC(=O)CNC(=O)[C@H](CC(C)C)NC(=O)[C@H](CCCCN)NC(=O)[C@H](CCCNC(=N)N)NC(=O)[C@@H]2CSSC[C@@H]3NC(=O)[C@@H]4CCCN4C(=O)[C@H](C(C)C)NC(=O)[C@H](CCC(N)=O)NC(=O)[C@H](CCC(N)=O)NC(=O)CNC(=O)[C@H](CC(C)C)NC(=O)[C@@H]4CSSC[C@H](NC(=O)[C@H]([C@@H](C)O)NC(=O)[C@H](C)NC(=O)[C@H](CSSC[C@@H](C(=O)N[C@@H](CO)C(=O)N[C@@H](CCCNC(=N)N)C(=O)N[C@H](C(N)=O)[C@@H](C)O)NC(=O)[C@@H]5CCCN5C(=O)[C@H](CC(N)=O)NC1=O)NC(=O)[C@@H]1CCCN1C(=O)[C@H](CC(=O)O)NC(=O)[C@H](CSSC[C@H](N)C(=O)N[C@@H](C(C)C)C(=O)N[C@@H](CCCNC(=N)N)C(=O)N[C@@H](CC(C)C)C(=O)N[C@@H](Cc1c[nH]cn1)C(=O)N[C@@H](CCC(=O)O)C(=O)N[C@@H](CO)C(=O)N4)NC3=O)C(=O)N[C@@H](Cc1ccc(O)cc1)C(=O)N[C@H]1CSSC[C@H](NC(=O)[C@H](Cc3ccccc3)NC(=O)[C@H](C)NC(=O)[C@H](CC(N)=O)NC(=O)[C@H](Cc3ccccc3)NC(=O)[C@H](Cc3ccccc3)NC(=O)[C@H](CCCNC(=N)N)NC1=O)C(=O)N[C@@H](Cc1ccc(O)cc1)C(=O)N2` [Agouti Related Protein (87-132)-Amide (Human)], in data set [1] (Table 2, 10 nM, 4 days), the “ATP (nM ATP/well)” value came to 11.2 ± 1.7 nM ATP/well and the “Fold Induction ATP” value is reported as 1.4* fold. Besides, in the data set on Adult neural stem cells (100 nM), the “% Doublecortin-positive cells” value stood at 2.4% and the “Fold Induction (Doublecortin-positive cells)” value is recorded as 0.9 fold. Besides, in data set [2] (setting [3]), the “cAMP (pmol/well)” value turned out to be 0.5 ± 0.20 pmol/well. For the same compound, in data set [2] (Table 2, 10 nM), the “Fold Induction cAMP” value was 2.4* fold.

Take `CSCC[C@H](NC(=O)[C@H](Cc1ccc(O)cc1)NC(=O)[C@@H](N)CC(=O)O)C(=O)NCC(=O)N[C@@H](Cc1c[nH]c2ccccc12)C(=O)N[C@@H](CCSC)C(=O)N[C@@H](CC(=O)O)C(=O)N[C@@H](Cc1ccccc1)C(N)=O` [Cholecystokinin Octapeptide [CCK(26-33)]]: in data set [1] (Table 2, 10 nM, 4 days), the “ATP (nM ATP/well)” value was 9.8 ± 0.4 nM ATP/well. In addition, the “% Doublecortin-positive cells” value with Adult neural stem cells (100 nM) came out at 3.2%. Besides, the “cAMP (pmol/well)” value in data set [2] (setting [4]) turned out to be 0.27 ± 0.06 pmol/well.

For `NC(=O)CC[C@@H]1NC(=O)[C@H](Cc2ccccc2)NC(=O)[C@H](Cc2ccc(O)cc2)NC(=O)CCSSC[C@@H](C(=O)N2CCC[C@H]2C(=O)N[C@H](CCCN=C(N)N)C(=O)NCC(N)=O)NC(=O)[C@H](CC(N)=O)NC1=O` [DDAVP], in data set [1] (Table 2, 100 nM, 4 days), the “ATP (nM ATP/well)” value came to 11.5 ± 1.4 nM ATP/well and the “Fold Induction ATP” value is 1.5* fold. In the data set on Adult neural stem cells (100 nM), the “% Doublecortin-positive cells” value is 4.6% and the “Fold Induction (Doublecortin-positive cells)” value was determined as 1.8 fold. In addition, in data set [2] (setting [3]), the “cAMP (pmol/well)” value is recorded as 0.27 ± 0.02 pmol/well. The “Fold Induction cAMP” value in data set [2] (Table 2, 10 nM) is 1.9*** (10 nM) fold.

Take `C=C[C@@]1(C)CC(=O)[C@]2(O)[C@@]3(C)[C@@H](O)CCC(C)(C)[C@@H]3[C@H](O)[C@H](OC(C)=O)[C@@]2(C)O1` [Forskolin, forskolin]: the fold induction at 1 µM in data set [1] (Mus musculus, Neural stem cell, 96 h, read-out: Fold Induction ATP) worked out at 1.1; in data set [2] (Mus musculus, Neural stem cell, 0.25 h, read-out: Fold Induction cAMP), 3.1. In addition, the “ATP (nM ATP/well)” value in data set [1] (Table 1, 1000 nM, 4 days in culture) turned out to be 10.4 ± 2.4 nM ATP/well. Besides, the fold induction at 10 µM in the data set with Adult neural stem cells (Mus musculus, Neural stem cell, read-out: Fold Induction (Doublecortin-positive cells)) was 2.5. The “% Doublecortin-positive cells” value in the data set with Adult neural stem cells (10 μM) came to 6.3%. In addition, in data set [2] (Table 1, 1000 nM, after 15 minutes), the “cAMP (pmol/well)” value was 0.07 ± 0.01 pmol/well.

Turning to `CNC(=O)[C@H]1O[C@@H](n2cnc3c(N)ncnc32)[C@H](O)[C@@H]1O` [MECA], in data set [1] (Table 2, 100 nM, 4 days), the “ATP (nM ATP/well)” value amounted to 7.4 ± 0.7 nM ATP/well and the “Fold Induction ATP” value is 1.6** fold. Further, in the data set on Adult neural stem cells (10 μM), the “% Doublecortin-positive cells” value is listed as 2.2% and the “Fold Induction (Doublecortin-positive cells)” value is listed as 0.9 fold. In addition, the “cAMP (pmol/well)” value in data set [2] (setting [4]) was determined as 3.89 ± 1.00 pmol/well. In addition, the “Fold Induction cAMP” value in data set [2] (Table 2, 100 nM) is 2.1* fold.

Turning to `CC(C)C[C@H](NC(=O)[C@H](CCCCN)NC(=O)CNC(=O)[C@H](CC(C)C)NC(=O)[C@@H](NC(=O)[C@@H]1CSSC[C@H](N)C(=O)N[C@@H](CO)C(=O)N[C@@H](CC(N)=O)C(=O)N[C@@H](CC(C)C)C(=O)N[C@@H](CO)C(=O)N[C@@H]([C@@H](C)O)C(=O)N1)C(C)C)C(=O)N[C@@H](CO)C(=O)N[C@@H](CCC(N)=O)C(=O)N[C@@H](CCC(=O)O)C(=O)N[C@@H](CC(C)C)C(=O)N[C@@H](Cc1c[nH]cn1)C(=O)N[C@@H](CCCCN)C(=O)N[C@@H](CC(C)C)C(=O)N[C@@H](CCC(N)=O)C(=O)N[C@H](C(=O)N[C@@H](Cc1ccc(O)cc1)C(=O)N1CCC[C@H]1C(=O)N[C@@H](CCCNC(=N)N)C(=O)N[C@H](C(=O)N[C@@H](CC(N)=O)C(=O)N[C@H](C(=O)NCC(=O)N[C@@H](CO)C(=O)NCC(=O)N[C@H](C(=O)N1CCC[C@H]1C(N)=O)[C@@H](C)O)[C@@H](C)O)[C@@H](C)O)[C@@H](C)O` [Thyrocalcitonin (Salmon)], in data set [1] (Table 2, 1 nM, 4 days), the “ATP (nM ATP/well)” value was determined as 9.2 ± 0.7 nM ATP/well and the “Fold Induction ATP” value was 1.3* fold. In the data set with Adult neural stem cells (100 nM), the “% Doublecortin-positive cells” value came to 3.9% and the “Fold Induction (Doublecortin-positive cells)” value is 1.5 fold. In addition, in data set [2] (setting [5]), the “cAMP (pmol/well)” value is on record as 0.63 ± 0.23 pmol/well. For the same compound, in data set [2] (Table 2, 1 nM), the “Fold Induction cAMP” value is given as 3.8* (1 nM) fold.

As for `N=C(N)NCCC[C@@H](N)C(=O)N[C@@H](CCCNC(=N)N)C(=O)N1CCC[C@H]1C(=O)N1C[C@H](O)C[C@H]1C(=O)NCC(=O)N[C@H](C(=O)N[C@@H](CO)C(=O)N[C@@H](C(=O)N1[C@H](C(=O)N[C@@H](CCCNC(=N)N)C(=O)O)C[C@@H]2CCCC[C@@H]21)C1Cc2ccccc2C1)C1Cc2ccccc2C1` [[D-Arg0, Hyp3, Ig15, D-Ig17, Oic8]-Bradykinin], the “ATP (nM ATP/well)” value in data set [1] (Table 2, 100 nM, 4 days) was 13.1 ± 2.1 nM ATP/well. The “% Doublecortin-positive cells” value in the data set on Adult neural stem cells (100 nM) is listed as 3.6%. Also, in data set [2] (setting [3]), the “cAMP (pmol/well)” value was 0.17 ± 0.02 pmol/well.

On to `CC(C)C[C@H](NC(=O)[C@@H](Cc1c[nH]c2ccccc12)NC(=O)[C@H](Cc1ccc(O)cc1)NC(=O)[C@H](CO)NC(=O)[C@@H](Cc1c[nH]c2ccccc12)NC(=O)[C@@H](Cc1ccccc1)NC(=O)[C@H]1CCC(=O)N1)C(=O)N[C@@H](CCCNC(=N)N)C(=O)N1CCC[C@H]1C(=O)NCC(N)=O` [[D-pGlu1,D-Phe2, D-Trp3,6]-LH-RH] ([d(pGlu)][dF][dW]SY[dW]LRPG-NH2; C-terminus assumed), for which the “ATP (nM ATP/well)” value in data set [1] (Table 2, 100 nM, 4 days) came out at 11.1 ± 0.4 nM ATP/well. The “% Doublecortin-positive cells” value in the data set on Adult neural stem cells (100 nM) was determined as 3.4%. The “cAMP (pmol/well)” value in data set [2] (setting [5]) is 0.07 ± 0.02 pmol/well.

Turning to `N=C(N)NCCC[C@H](N)C(=O)N1CCC[C@H]1C(=O)N1CCC[C@H]1C(=O)NCC(=O)N[C@@H](Cc1ccccc1)C(=O)N[C@@H](CO)C(=O)N1CCC[C@H]1C(=O)N[C@@H](Cc1ccccc1)C(=O)O` [[Des-Arg9]-Bradykinin], in data set [1] (Table 2, 1 nM, 4 days), the “ATP (nM ATP/well)” value is recorded as 10.4 ± 1.0 nM ATP/well and the “Fold Induction ATP” value is reported as 1.2* fold. In the data set with Adult neural stem cells (100 nM), the “% Doublecortin-positive cells” value is listed as 4.5% and the “Fold Induction (Doublecortin-positive cells)” value is given as 1.8 fold. Besides, the “cAMP (pmol/well)” value in data set [2] (setting [5]) stood at 0.06 ± 0.01 pmol/well. For the same compound, the “Fold Induction cAMP” value in data set [2] (Table 2, 1 nM) is given as 1.7*** fold.
